# Article PMC5464773 (eLife, 2017)
# Like-named read-outs stand apart in the source and are kept apart here.
# Columns and labels:
# Bcl-w = target: T1, Bcl-w (Homo sapiens, UniProt Q92843); experiment: Competition fluorescence polarization (anisotropy) with fluoresceinated BIM; assay type: binding
# T1 construct: c-myc
# T1 sequence (Q92843 1-193): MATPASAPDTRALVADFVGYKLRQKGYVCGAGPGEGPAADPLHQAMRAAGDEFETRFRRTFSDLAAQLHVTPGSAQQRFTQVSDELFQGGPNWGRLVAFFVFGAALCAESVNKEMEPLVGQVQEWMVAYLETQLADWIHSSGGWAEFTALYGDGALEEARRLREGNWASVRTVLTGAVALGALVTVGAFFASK
# Protocol: (§1) Plates were mixed at 23°C for 3 hr. Plates were read again at 24 to check equilibration. Experiments were done in at least triplicate.
# Bcl-xL = target: T2, Bcl-xL (Homo sapiens, UniProt Q07817); experiment: as above; assay type: binding
# T2 construct: c-myc
# Protocol: as §1
# Bcl-2 = target: T3, Bcl-2 (Homo sapiens, UniProt P10415); experiment: as above; assay type: binding
# T3 construct: c-myc
# Protocol: as §1
# Bfl-1 = target: T4, Bfl-1 (Homo sapiens, UniProt Q16548); experiment: as above; assay type: binding; conditions: for Ki / Ki (M) Bfl-1: competition FP source data; for Ki: mean of three replicates
# T4 construct: c-myc
# T4 sequence (Q16548 1-175): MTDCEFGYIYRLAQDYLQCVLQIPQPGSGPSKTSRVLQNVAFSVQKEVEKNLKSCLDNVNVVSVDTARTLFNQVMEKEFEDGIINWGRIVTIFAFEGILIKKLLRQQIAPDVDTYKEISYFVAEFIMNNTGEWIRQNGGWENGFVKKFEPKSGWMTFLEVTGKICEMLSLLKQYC
# Protocol: as §1
# SF295 cells = assay type: cell-based
# Protocol: (§2) To test the possibility that FS1, FS2 or FS3 may directly activate BAK and BAX, we measured cytochrome c release in two ‘unprimed’ cell lines (PC-3 and SF295). Unprimed cells require BAK/BAX activators to release cytochrome c ([Certo et al., 2006]).
# (§3) Cell line identities were confirmed by STR profiling.
# (§4) Plates were incubated at 25°C for 1 hr.
# Mcl-1 = target: T5, Mcl-1 (Homo sapiens, UniProt Q07820); experiment: Competition fluorescence polarization (anisotropy) with fluoresceinated BIM; assay type: binding
# T5 construct: c-myc
# Protocol: C-myc-tagged receptors were used for all Bcl-2 homologs, as previously described ([DeBartolo et al., 2012]; [Dutta et al., 2010]). Plates were mixed at 23°C for 3 hr. Plates were read again at 24 to check equilibration. Experiments were done in at least triplicate. Data were fit, as described for competition fluorescence anisotropy experiments in [Foight et al. (2014]), to a complete competitive binding model (equation 17 in [Roehrl et al. [2004]]) using a Python script.
# [1] = system: BCR-ABL-expressing B-lineage acute lymphoblastic leukemia cells dependent on Bcl-2; experiment: iBH3 profiling, cytochrome c release; assay type: cell-based; conditions: iBH3 fits Bcl-2, sigmoidal dose-response (variable slope)
# Protocol: (§5) As an additional test for on-pathway activity, we measured cytochrome c release in the same engineered cell lines in response to peptide treatment, using iBH3 profiling ([Ryan et al., 2016]).
# (§6) The creation and characterization of the BCR-ABL-expressing B-lineage acute lymphoblastic leukemia suspension cell lines with engineered dependencies on human versions of anti-apoptotic genes is detailed in [Koss et al. (2016)]). Cells were grown in RPMI (Life Technologies, Carlsbad, CA) with 10% fetal bovine serum, 2 mM L-glutamine, 10 mL/L 100x Pen/Strep (Life Technologies # 15140122), 25 mM HEPES and 10 mL/L 100x NEAA (Life Technologies, 11140050). The adherent cell lines PC-3 (RRID: CVCL_0035) and SF295 (RRID: CVCL_1690) are from the NCI60 panel ([Lorenzi et al., 2009]) and were grown in RPMI (Life Technologies) with 10% fetal bovine serum, 2 mM L-glutamine and 10 mL/L 100x Pen/Strep (Life Technologies # 15140122 ). Cell line identities were confirmed by STR profiling. The Lookout Mycoplasma PCR detection kit (Sigma) was used to detect mycoplasma infection.
# (§7) Cells were suspended in MEB buffer (150 mM mannitol, 50 mM KCl, 10 mM HEPES, 5 mM succinic acid, 20 μM EGTA, 20 μM EDTA, 0.1% BSA, final pH 7.4) at 0.5*10^6 cells/mL (adherent lines) or 2 *10^6 cells/mL (suspension lines). Cell suspension was added to a 384 non-binding well plate (10 μL/well) containing peptides at 2X final concentration in MEB with 20 μg/mL digitonin. Plates were incubated at 25°C for 1 hr. To terminate exposure, 10 μL of 4% formaldehyde in PBS was added to each well, plates were incubated for 10 min before addition of 10 μL N2 buffer (1.7M Tris, 1.25M glycine, pH 9.1) for 5 min. 10 μL of staining buffer (2% Tween20, 10% BSA, PBS) containing 10 μg/mL Hoechst 33342 and 1.25 μg/mL anti-cytochrome c Alexa647 conjugate (BioLegend clone 6H2.B4) was added to each well before sealing the plate and shaking overnight. The median fluorescence of the cytochrome c channel of Hoechst positive singlets was recorded by an IntelliCyt iQue Screener Plus. Cytochrome c release was determined by normalizing the median fluorescence intensity (MFI) data to positive control wells (Alamethicin) and negative control wells (DMSO) as follows: Cytochromecrelease=1−(MFIsample−MFIAlamethicin)/(MFIDMSO−MFIAlamethicin)
# [2] = system: BCR-ABL-expressing B-lineage acute lymphoblastic leukemia cells dependent on Mcl-1; conditions: iBH3 fits Mcl-1, sigmoidal dose-response (variable slope)
# Protocol: as §5, §6, §7
# PC-3 cells = experiment: iBH3, cytochrome c release in unprimed cells (BAK/BAX activator function); assay type: cell-based
# Protocol: as §2, §3, §4
# [3] = competition FP source data, mean of three replicates, values above 5 μM are reported as > 5 μM in the figures, read-out: mean Ki (M) Bcl-w
# [4] = competition FP source data, replicate 1
# [5] = competition FP source data, replicate 2
# [6] = competition FP source data, replicate 3
# [7] = SF295 cells, iBH3 fit, sigmoidal dose-response (variable slope)
# [8] = iBH3 fit PC-3, sigmoidal dose-response (variable slope), fit of 4 replicates
# [9] = competition FP, 50 nM c-myc-tagged receptor + 25 nM fluoresceinated BIM, Tris pH 7.8, 23°C, 3 hr, mean ± SD of three replicates, read-out: Ki (nM) Bcl-w
# [10] = competition FP, 50 nM c-myc-tagged receptor + 25 nM fluoresceinated BIM, Tris pH 7.8, 23°C, 3 hr, mean ± SD of three replicates, read-out: Ki (nM) Bcl-xL
# [11] = competition FP, 50 nM c-myc-tagged receptor + 25 nM fluoresceinated BIM, Tris pH 7.8, 23°C, 3 hr, mean ± SD of three replicates, read-out: Ki (nM) Bcl-2
# [12] = competition FP source data, mean of three replicates, values above 5 μM are reported as > 5 μM in the figures, read-out: mean Ki (M) Mcl-1
# [13] = competition FP, 50 nM c-myc-tagged receptor + 25 nM fluoresceinated BIM, Tris pH 7.8, 23°C, 3 hr, mean ± SD of three replicates, read-out: Ki (nM) Mcl-1
# T2 sequence (Q07817 whole entry): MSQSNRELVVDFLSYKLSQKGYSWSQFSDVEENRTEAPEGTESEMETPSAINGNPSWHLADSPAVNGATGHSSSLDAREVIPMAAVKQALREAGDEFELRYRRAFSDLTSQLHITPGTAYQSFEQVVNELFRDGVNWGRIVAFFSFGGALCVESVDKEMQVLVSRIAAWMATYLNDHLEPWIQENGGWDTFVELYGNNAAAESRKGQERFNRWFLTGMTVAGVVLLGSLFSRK
# T3 sequence (P10415 whole entry): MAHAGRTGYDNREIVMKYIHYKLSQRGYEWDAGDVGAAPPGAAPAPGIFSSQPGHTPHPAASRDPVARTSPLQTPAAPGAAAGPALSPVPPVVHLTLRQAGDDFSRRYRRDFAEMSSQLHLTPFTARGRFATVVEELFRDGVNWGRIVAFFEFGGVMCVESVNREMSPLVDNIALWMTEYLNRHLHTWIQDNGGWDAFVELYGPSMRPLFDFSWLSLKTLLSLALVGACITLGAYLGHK
# T5 sequence (Q07820 whole entry): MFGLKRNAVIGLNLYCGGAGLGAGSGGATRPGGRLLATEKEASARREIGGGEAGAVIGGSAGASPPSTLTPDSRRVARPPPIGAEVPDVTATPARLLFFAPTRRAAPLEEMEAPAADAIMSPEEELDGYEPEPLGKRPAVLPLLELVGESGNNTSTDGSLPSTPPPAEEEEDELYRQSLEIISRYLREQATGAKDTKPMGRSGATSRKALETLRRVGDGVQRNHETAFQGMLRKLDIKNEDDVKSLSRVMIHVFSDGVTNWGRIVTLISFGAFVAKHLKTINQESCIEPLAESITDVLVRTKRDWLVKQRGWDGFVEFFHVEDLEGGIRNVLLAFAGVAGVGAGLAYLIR
Compound,Ki (Bcl-w; [3]) [M],Ki (M) Bcl-w (Bcl-w; [4]) [M],Ki (M) Bcl-w (Bcl-w; [5]) [M],Ki (M) Bcl-w (Bcl-w; [6]) [M],Ki (M) Bcl-xL (Bcl-xL; [4]) [M],Ki (M) Bcl-xL (Bcl-xL; [5]) [M],Ki (M) Bcl-xL (Bcl-xL; [6]) [M],Ki (M) Bcl-2 (Bcl-2; [4]) [M],Ki (M) Bcl-2 (Bcl-2; [5]) [M],Ki (M) Bcl-2 (Bcl-2; [6]) [M],Ki (Bfl-1) [nM],Ki (M) Bfl-1 (Bfl-1; replicate 1) [M],Ki (M) Bfl-1 (Bfl-1; replicate 2) [M],Ki (M) Bfl-1 (Bfl-1; replicate 3) [M],Ki (M) Mcl-1 (Mcl-1; [4]) [M],Ki (M) Mcl-1 (Mcl-1; [5]) [M],Ki (M) Mcl-1 (Mcl-1; [6]) [M],Ki (Bcl-w; [9]) [M],Ki (Bcl-xL; [10]) [M],Ki (Bcl-2; [11]) [nM],also measured
"CC[C@H](C)[C@H](NC(=O)[C@H](CCC(=O)O)NC(=O)[C@H](CCCNC(=N)N)NC(=O)[C@H](C)NC(=O)[C@H](Cc1c[nH]c2ccccc12)NC(=O)[C@H](CCC(N)=O)NC(C)=O)C(=O)NCC(=O)N[C@@H](C)C(=O)N[C@@H](CCC(N)=O)C(=O)N[C@@H](CC(C)C)C(=O)N[C@@H](CCCNC(=N)N)C(=O)N[C@@H](CCCNC(=N)N)C(=O)N[C@@H](CCSC)C(=O)N[C@@H](C)C(=O)N[C@@H](CC(=O)O)C(=O)N[C@@H](CC(=O)O)C(=O)N[C@@H](CC(C)C)C(=O)N[C@@H](CC(N)=O)C(=O)N[C@@H](C)C(=O)N[C@@H](CCC(N)=O)C(=O)N[C@@H](Cc1ccc(O)cc1)C(=O)N[C@@H](CCC(=O)O)C(=O)N[C@@H](CCCNC(=N)N)C(N)=O [PUMA, reference compound]",2.97e-09,4.44e-09,4.04e-09,4.31e-10,2.23e-09,4.17e-09,4.19e-10,4.27e-09,9.91e-09,2.68e-09,4.84,4.9e-09,5.4e-09,4.23e-09,2.28e-09,3.28e-09,1.63e-09,,,,"peptide concentration leading to cytochrome c release in unprimed cells (SF295 cells; SF295, unprimed, iBH3, 25°C, 1 hr): observed cytochrome c release; Bottom (best-fit value) (SF295 cells; [7]): -0.02393; HillSlope (best-fit value) (SF295 cells; [7]): 0.4226; Top (best-fit value) (SF295 cells; [7]): 0.958; LogEC50 (best-fit value) (SF295 cells; SF295 cells, iBH3 fit, sigmoidal dose-response (variable slope), log of peptide concentration in M): -5.945; LogEC50 (best-fit value) ([1]; log of EC50, x axis Log [Peptide M]): -7.436; HillSlope (best-fit value) [1]: 1.78; Bottom (best-fit value) ([1]; fit of 3 replicates): 0.2923; Top (best-fit value) ([1]; fit of 3 replicates): 1.01; HillSlope (best-fit value) [2]: ~ 1.358; Bottom (best-fit value) ([2]; fit of 3 replicates): ~ -276.9; Top (best-fit value) ([2]; fit of 3 replicates): 0.9859; peptide concentration leading to cytochrome c release in unprimed cells (PC-3 cells; PC-3, unprimed, iBH3, 25°C, 1 hr): observed cytochrome c release; LogEC50 (best-fit value) (PC-3 cells; iBH3 fit PC-3, log of EC50, x axis Log [Peptide M], sigmoidal dose-response (variable slope)): -6.309; HillSlope (best-fit value) (PC-3 cells; iBH3 fit PC-3, sigmoidal dose-response (variable slope)): 1.567; Bottom (best-fit value) (PC-3 cells; [8]): 0.1477; Top (best-fit value) (PC-3 cells; [8]): 0.7911"
Ac-QWAREIGAGLRRAADDVNAQVER-NH2 [Puma_N/FS2_C],,,,,3.68e-09,1.31e-09,2.24e-09,,,,,,,,6.72e-10,1.94e-10,1.4e-10,> 5e-06,1.1e-06 ± 3e-07,2000 ± 160,"Ki (Bcl-xL; competition FP source data, mean of three replicates, values above 5 μM are reported as > 5 μM in the figures, read-out: mean Ki (M) Bcl-xL): 2.41e-09 M; Ki (Mcl-1; [12]): 3.36e-10 M; Ki (Mcl-1; [13]): > 5e-06 M"
Ac-QWVREIAAQLRRMADDLNAQYER-NH2 [FS2_N/Puma_C],8.83e-06,9.94e-06,6.82e-06,9.74e-06,,,,1.99e-06,1.85e-06,2.17e-06,594,4.65e-07,6.79e-07,6.37e-07,5.7e-06,6.84e-05,0.00018,1.2e-09 ± 3e-10,2.4e-09 ± 1.2e-09,14 ± 2,"Ki (Bcl-2; competition FP source data, mean of three replicates, values above 5 μM are reported as > 5 μM in the figures, read-out: mean Ki (M) Bcl-2): 2000 nM; Ki (Mcl-1; [12]): 8.46e-05 M; Ki (Mcl-1; [13]): 3e-10 ± 3e-10 M"
Ac-RPVIWIAQGLRRAGDEVNAYVAR-NH2 [BIM-FS2],,,,,,,,,,,,7.75e-07,7.87e-07,5.89e-07,,,,,,,fold weaker binding to Bfl-1 than native BIM (Bfl-1; ratio of Ki values from competition FP): > 1000 fold
